The source of these data is BindingDB's records for doi:10.1021/jm00022a006 (Eli Lilly, 1995).

Each structure is given as a SMILES string.

The term Ki denotes the equilibrium dissociation constant of an inhibitor or competing ligand from its target. High values mean weaker binding, low ones tighter binding.

This experiment has as its target Leukotriene B4 receptor 1 (Cavia porcellus). Nature of the experiment: Binding affinity towards LTB4 receptor guinea pig spleen cells using [3H]LTB4 as radioligand.
On to `CCCc1c(OCCCOc2cc(O)c(-c3ccc(F)cc3)cc2CC)cccc1Sc1ccccc1C(=O)O` [2-{3-[3-(5-Ethyl-4'-fluoro-2-hydroxy-biphenyl-4-yloxy)-propoxy]-2-propyl-phenylsulfanyl}-benzoic acid], for which the Ki turned out to be 0.042 µM. The figure for `CCCc1c(OCCCOc2cc(O)c(-c3ccc(F)cc3)cc2CC)cccc1C(=O)c1ccccc1C(=O)O` [2-{3-[3-(5-Ethyl-4'-fluoro-2-hydroxy-biphenyl-4-yloxy)-propoxy]-2-propyl-benzoyl}-benzoic acid] is 0.033 µM. The same measure for `CCCc1c(OCCCOc2cc(O)c(-c3ccc(F)cc3)cc2CC)cccc1[S+]([O-])c1ccccc1C(=O)O` (stereo not drawn) [2-{3-[3-(5-Ethyl-4'-fluoro-2-hydroxy-biphenyl-4-yloxy)-propoxy]-2-propyl-benzenesulfinyl}-benzoic acid]: 0.0059 µM.
